What follows are molecules tested against T1, hGPR120 (Homo sapiens, UniProt Q5NUL3) (assay: Measurement of activity of GPR120 agonist (cell-based calcium fluorescence assay)). Details: not given.
T1 construct: expressed in transfected cells; host or cells: CHO-K1
T1 sequence (Q5NUL3 1-361): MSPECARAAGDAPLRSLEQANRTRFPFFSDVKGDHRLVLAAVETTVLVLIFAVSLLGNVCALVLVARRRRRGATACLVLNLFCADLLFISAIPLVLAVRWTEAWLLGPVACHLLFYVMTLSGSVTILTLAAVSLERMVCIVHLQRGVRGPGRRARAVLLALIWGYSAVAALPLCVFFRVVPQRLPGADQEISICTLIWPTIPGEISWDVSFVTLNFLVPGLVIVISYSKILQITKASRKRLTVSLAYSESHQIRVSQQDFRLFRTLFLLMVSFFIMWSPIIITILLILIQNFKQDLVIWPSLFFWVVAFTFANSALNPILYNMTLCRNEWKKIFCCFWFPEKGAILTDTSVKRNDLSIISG
Procedure: CHO-K1 cells expressing Ga16 and hGPR120 were dispensed into each well of a 96-well plate (3×10^4 cells/100 μl/well) and then incubated in 5% CO2, 37° C. incubator for 18 hours. Each well was treated with 100 μl of Calcium 5 dye (Molecular Devices) solution including 2% DMSO and then incubated in 5% CO2, 37° C. incubator for 1 hour. Serially diluted GPR120 agonists were prepared to a final concentration of 0.5% DMSO in a 96-well plate.
Fluorescence increased by the serially diluted GPR120 agonists is calculated as a relative percent (%) value based on the fluorescence represented by the treatment of 1% DMSO only. […] The calculation of measurement was carried out by using statistical software (Prizm).
Activity is denoted based on the following criteria: […]

Row | EC50 [nM] | Structure (SMILES)
1 | 200 to 2000 | CC(C)Nc1ccccc1-c1cc(F)c(OCCCC(=O)O)c(F)c1 [Example 83, 4-[2,6-difluoro-4-[2-(isopropylamino)phenyl]phenoxy]butanoic Acid]

Same assay, conditions: CHO-K1 cells expressing Ga16 and hGPR120, Calcium 5 dye fluorescence; activity class; read-out: EC50

Row | Structure (SMILES) | EC50 [nM]
2 | CC(C)Nc1ncccc1-c1cc(F)c(OCCCC(=O)O)c(F)c1 [Example 76, 4-[2,6-difluoro-4-[2-(isopropylamino)-3-pyridyl]phenoxy]butanoic acid] | 200 to 2000
3 | O=C(O)CCCOc1c(F)cc(-c2cccnc2NC2CC2)cc1F [Example 77, 4-[4-[2-(cyclopropylamino)-3-pyridyl]-2,6-difluoro-phenoxy]butanoic acid] | > 20000
4 | CC(C)Nc1cccc(-c2cc(F)c(OCCCC(=O)O)c(F)c2)n1 [Example 78, 4-[2,6-difluoro-4-[6-(isopropylamino)-2-pyridyl]phenoxy]butanoic acid] | 200 to 2000
5 | O=C(O)CCCOc1c(F)cc(-c2ccccc2NC2CCCC2)cc1F [Example 79, 4-[4-[2-(cyclopentylamino)phenyl]-2,6-difluoro-phenoxy]butanoic acid] | < 200
6 | O=C(O)CCCOc1ccc(-c2ccccc2NCC2CC2)cc1 [Example 85, 4-[4-[2-(cyclopropylmethylamino)phenyl]phenoxy]butanoic acid] | 200 to 2000
7 | CCCNc1ccccc1-c1ccc(OCCCC(=O)O)cc1 [Example 86, 4-[4-[2-(propylamino)phenyl]phenoxy]butanoic acid] | 200 to 2000
8 | O=C(O)CCCOc1c(F)cc(-c2ccccc2NC2CCC2)cc1F [Example 89, 4-[4-[2-(cyclobutylamino)phenyl]-2,6-difluoro-phenoxy]butanoic acid] | < 200
9 | CC(C)Nc1cccc(-c2cc(F)c(OCCCC(=O)O)c(F)c2)c1 [Example 91, 4-[2,6-difluoro-4-[3-(isopropylamino)phenyl]phenoxy]butanoic acid] | < 200
10 | O=C(O)CCCOc1c(F)cc(-c2cccc(N3CCCC3)c2)cc1F [Example 92, 4-[2,6-difluoro-4-(3-pyrrolidin-1-ylphenyl)phenoxy]butanoic acid] | < 200
11 | CCCNc1cccc(-c2cc(F)c(OCCCC(=O)O)c(F)c2)c1 [Example 94, 4-[2,6-difluoro-4-[3-(propylamino)phenyl]phenoxy]butanoic acid] | 200 to 2000
12 | O=C(O)CCCOc1c(F)cc(-c2cc(F)ccc2NC2CCCC2)cc1F [Example 96, 4-[4-[2-(cyclopentylamino)-5-fluoro-phenyl]-2,6-difluoro-phenoxy]butanoic acid] | < 200
13 | O=C(O)CCCOc1c(F)cc(-c2cccc(C3CCCC3)c2)cc1F [Example 97, 4-[4-(3-cyclopentylphenyl)-2,6-difluoro-phenoxy]butanoic acid] | < 200

Other lines, results leading:

Row | EC50 [nM] | Structure (SMILES)
14 | < 200 | O=C(O)CCCOc1c(F)cc(-c2cccc(NC3CCCC3)c2)cc1F [Example 80, 4-[4-[3-(cyclopentylamino)phenyl]-2,6-difluoro-phenoxy]butanoic acid]
15 | < 200 | CCCNc1ccccc1-c1cc(F)c(OCCCC(=O)O)c(F)c1 [Example 81, 4-[2,6-difluoro-4-[2-(propylamino)phenyl]phenoxy]butanoic acid]
16 | < 200 | O=C(O)CCCOc1c(F)cc(-c2ccccc2NCC2CC2)cc1F [Example 82, 4-[4-[2-(cyclopropylmethylamino)phenyl]-2,6-difluoro-phenoxy]butanoic acid]
17 | 200 to 2000 | CC(C)Nc1ccccc1-c1ccc(OCCCC(=O)O)cc1 [Example 87, 4-[4-[2-(isopropylamino)phenyl]phenoxy]butanoic acid]
18 | 200 to 2000 | O=C(O)CCCOc1ccc(-c2ccccc2NC2CCC2)cc1 [Example 88, 4-[4-[2-(cyclobutylamino)phenyl]phenoxy]butanoic acid]
19 | < 200 | O=C(O)CCCOc1c(F)cc(-c2cccc(NCC3CC3)c2)cc1F [Example 90, 4-[4-[3-(cyclopropylmethylamino)phenyl]-2,6-difluoro-phenoxy]butanoic acid]
20 | 200 to 2000 | O=C(O)CCCOc1c(F)cc(-c2cc(Cl)ccc2NC2CCCC2)cc1F [Example 95, 4-[4-[5-chloro-2-(cyclopentylamino)phenyl]-2,6-difluoro-phenoxy]butanoic acid]

From patent US10221138B2, “Biaryl derivatives as GPR120 agonists” (LG CHEM, LTD., priority 2013, dated 2019)
